This is an account of results in patent publication US11324725B2, “Compositions and methods for the inhibition of pruritus” (The United States of America, as represented by the …, priority 2017, dated 2022).

“Also recorded” adds a separate entry of the source.

The target in this test is T1, hNpr2 (Homo sapiens, UniProt P20594).
T1 sequence (P20594 23-1047): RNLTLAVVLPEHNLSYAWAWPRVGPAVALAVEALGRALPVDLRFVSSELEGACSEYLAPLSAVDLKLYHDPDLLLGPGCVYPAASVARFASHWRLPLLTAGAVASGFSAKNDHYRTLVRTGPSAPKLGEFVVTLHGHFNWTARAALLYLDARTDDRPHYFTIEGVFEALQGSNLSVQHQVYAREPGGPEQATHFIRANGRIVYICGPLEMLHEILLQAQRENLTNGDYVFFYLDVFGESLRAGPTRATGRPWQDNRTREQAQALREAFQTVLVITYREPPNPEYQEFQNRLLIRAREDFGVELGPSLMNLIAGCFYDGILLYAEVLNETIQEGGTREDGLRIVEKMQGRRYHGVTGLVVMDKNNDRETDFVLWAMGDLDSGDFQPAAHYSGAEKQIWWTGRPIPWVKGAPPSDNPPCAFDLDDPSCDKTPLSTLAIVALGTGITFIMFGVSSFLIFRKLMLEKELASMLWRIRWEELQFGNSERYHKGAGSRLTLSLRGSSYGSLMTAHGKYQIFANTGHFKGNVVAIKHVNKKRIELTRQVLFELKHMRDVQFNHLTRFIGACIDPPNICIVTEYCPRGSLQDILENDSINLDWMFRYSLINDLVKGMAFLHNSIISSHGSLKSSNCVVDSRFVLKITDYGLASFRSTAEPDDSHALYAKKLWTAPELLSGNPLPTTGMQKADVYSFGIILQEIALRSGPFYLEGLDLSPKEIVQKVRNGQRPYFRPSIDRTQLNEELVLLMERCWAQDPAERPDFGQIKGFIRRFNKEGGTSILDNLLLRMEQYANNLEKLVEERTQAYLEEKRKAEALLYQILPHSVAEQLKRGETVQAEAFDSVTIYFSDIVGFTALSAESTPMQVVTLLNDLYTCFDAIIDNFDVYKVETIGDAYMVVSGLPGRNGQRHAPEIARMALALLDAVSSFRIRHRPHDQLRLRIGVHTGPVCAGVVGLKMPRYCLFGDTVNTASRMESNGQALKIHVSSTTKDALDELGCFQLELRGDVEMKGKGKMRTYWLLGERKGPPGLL
Kind of test: Counter-screen, Nppc-stimulated HEK-hNpr2-cGMP-sensor cells. It counts as cell-based. The following applies: for IC50 / Imax: 1 nM Nppc-stimulated; for Imax: read-out: Imax, HEK-hNpr2-cGMP-sensor cells, −100% = no agonist; for Inhibition of Nppc-induced hNpr2 activity (in words): HEK-hNpr2-cGMP-sensor cells. An excerpt:
In order to identify small molecular compounds that inhibit the Npr1 receptor a high-throughput assay to probe inhibition of the receptor guanylate cyclase Npr1 was developed. The assay was designed taking advantage of Promega's GloSensor™ technology (Promega, Madison, Wis.). This technology involves the expression of a cyclic guanosine monophosphate (cGMP) biosensor, comprised of a firefly luciferase variant that was coupled to the cGMP binding domain of human phosphodiesterase 5A, and loading of cells with a cell-permeable luciferase substrate to monitor cGMP production by Npr1 in real time in live cells. Briefly, human embryonic kidney 293 cells stably expressing the human Npr1 and the pGloSensor™-40F cGMP vector (“pGloSensor™-40F”) were generated. Stimulating these cells with the Npr1 agonists human NppA or NppB, luciferase-induced light production could be detected in a dose-dependent manner. HEK293 cells stably expressing human Npr2 and pGS-40F and cells only expressing pGS-40F were also generated to conduct secondary counter screens. In these cells, NppC or sodium nitroprusside were used to stimulate Npr2 or soluble guanylate cyclase which is endogenously expressed in HEK293 cells, respectively. The Npr2-NppC counter screen was employed to search for agents that minimally effected this agonist-receptor interaction. The Npr2-NppC system was used because the side effects of most drugs occur on related receptors. Npr1 and Npr2 are the most related receptors in sequence and function and there are no additional active receptor subtypes in this family of receptors. The procedure is described in detail below.
Counter-screens were performed with HEK293-hNpr2-cGMP-sensor and HEK293-cGMP-sensor cells. These cells were stimulated with 1 nM NppC or 50 μM sodium nitroprusside, respectively, but otherwise the assay was conducted as described for HEK-hNpr1-cGMP-sensor cells. Pre-agonist controls were the same for all three assays, but normalization of post-agonist data differed between assays. For HEK-hNpr1-cGMP-sensor cells, −100% activity in post-agonist data was defined as described for primary screening, while for HEK-hNpr2-cGMP-sensor and HEK-cGMP-sensor cells, the average signal of DMSO-treated wells with 2% GloSensor™ reagent and the respective agonist was defined as 0% and the average signal of wells without agonist as −100% activity and data were normalized accordingly. Compounds directly interacting with the pGloSensor™-40F reporter system in HEK293 cells stimulated with sodium nitroprusside were eliminated as false positives. Effects of compounds on HEK293 cells stimulated with NppC and stably expressing hNpr2 and pGS-40F were tested for receptor selectivity.
On the technique in general: A counterscreen serves to expose hits that act by an unwanted route or on another target.

For orientation: IC50 means the concentration that inhibits the measured activity by half. A high value points to weaker potency. Turning to `Cl.O=C1Nc2ccccc2CN(CC2CCCCC2)C12CCNCC2` [JS-1, 4-(cyclohexylmethyl)-4,5-dihydrospiro[benzo[e][1,4]diazepine-3,4′-piperidin]-2(1H)-one hydrochloride], the IC50 was 7.2 ± 1.3 µM and the Imax is -106 ± 8%.
For `COc1ccc(C2(C(=O)N3CCC4(CC3)c3nccn3-c3ccccc3CN4C)CC2)cc1` [JS-12, (1-(4-methoxyphenyl)cyclopropyl)(5-methyl-5,6-dihydrospiro[benzo[f]imidazo[1,2-a][1,4]diazepine-4,4′-piperidin]-1′-yl)methanone], in that order: 5.7 ± 1.1 µM and -96 ± 4%.
For the molecule `CCC(CC)c1cc([C@H]2CN3CC[C@H]2C[C@@H]3CNS(=O)(=O)c2cccs2)nc(-c2ccncc2)n1` [JS-3, N-(((2R,4S,5R)-5-(6-(pentan-3-yl)-2-(pyridin-4-yl)pyrimidin-4-yl)quinuclidin-2-yl)methyl)thiophene-2-sulfonamide], the half-maximal inhibitory concentration (IC50) is 17 ± 20 µM and the Imax is -126 ± 23%.
`COc1cc(CN2CCC(C)(NC(C)=O)CC2)cc(-c2ccncc2)c1` [JS-4, N-(1-(3-methoxy-5-(pyridin-4-yl)benzyl)-4-methylpiperidin-4-yl)acetamide]: the IC50 was 11 ± 1.2 µM and the Imax is -100 ± 5%.
Consider `Cc1noc(C)c1-c1cc(-c2ccccc2Oc2ccccc2)cn2cncc12` [JS-5, 3,5-dimethyl-4-(6-(2-phenoxyphenyl)imidazo[1,5-a]pyridin-8-yl)isoxazole], for which the midpoint of inhibition, the IC50, lay at 12 ± 1.1 µM; the “Inhibition of Nppc-induced hNpr2 activity (in words)” value (“Inhibition” for short) is reported as “inhibited hNpr2 with similar potency to hNpr1; also recorded: antagonizes natriuretic peptide-induced activation”; the Imax was -97 ± 4%.
Take `Cc1nn2c(c1-c1ccccc1OCc1ccccc1)N(C(=O)Cc1ccc3c(c1)OCO3)CCC2` [JS-8, 2-(benzo[d][1,3]dioxol-5-yl)-1-(3-(2-(benzyloxy)phenyl)-2-methyl-6,7-dihydropyrazolo[1,5-a]pyrimidin-4(5H)-yl)ethan-1-one]: the midpoint of inhibition, the IC50, lay at 9.1 ± 1.4 µM; the “Inhibition” value is “inhibited hNpr2 with similar potency to hNpr1; also recorded: antagonizes natriuretic peptide-induced activation”; the Imax was -127 ± 13%.
For the molecule `CN(Cc1ccccc1)C(=O)c1cn2ccnc(-c3ccccc3)c2n1` [JS-14, N-benzyl-N-methyl-8-phenylimidazo[1,2-a]pyrazine-2-carboxamide], the IC50 came to 20 ± 1.1 µM and the Imax was -91 ± 8%.
For `Cc1nn2c(c1-c1ccccc1OCc1ccccc1)N(C(=O)Cc1ccccn1)CCC2` [JS-9, 1-(3-(2-(benzyloxy)phenyl)-2-methyl-6,7-dihydropyrazolo[1,5-a]pyrimidin-4(5H)-yl)-2-(pyridin-2-yl)ethan-1-one], 20 ± 16 µM corresponded to half-maximal inhibition (IC50) and the Imax is -102 ± 16%.
For the molecule `O=C(Cc1ccc(Cl)cc1)N1Cc2ccccc2CC2(CCCN2CC2CCNC2)C1` (stereo not shown) [JS-2, 2-(4-chlorophenyl)-1-(1′-(pyrrolidin-3-ylmethyl)-1,5-dihydrospiro[benzo[c]azepine-4,2′-pyrrolidin]-2(3H)-yl)ethan-1-one], the 50% inhibitory concentration (IC50) amounted to 6.4 ± 1.1 µM and the Imax is -88 ± 5%.
In the case of `N#Cc1ccccc1CN1CCCC(C(=O)NCc2ccccc2)CCNC(=O)CC1` (stereo not shown) [JS-13, N-benzyl-1-(2-cyanobenzyl)-4-oxo-1,5-diazacycloundecane-8-carboxamide], it took 5.9 ± 1.3 µM to reach half-maximal inhibition (IC50) and the Imax is -108 ± 8%.
Consider `Cc1cc(CNC(=O)c2ccc3c(c2)n(CC2CC2)c(=O)n3C2CCCCC2)on1` [JS-11, 1-cyclohexyl-3-(cyclopropylmethyl)-N-((3-methylisoxazol-5-yl)methyl)-2-oxo-2,3-dihydro-1H-benzo[d]imidazole-5-carboxamide], for which the IC50 turned out to be 5 ± 1.1 µM, the “Inhibition” value was “inhibited hNpr2 with similar potency to hNpr1; also recorded: antagonizes natriuretic peptide-induced activation” and the Imax was -97 ± 4%.
With `O=C(NCc1cccnc1)c1cnc2[nH]nc(-c3ccccc3)c2n1` [JS-7, 3-phenyl-N-(pyridin-3-ylmethyl)-1H-pyrazolo[3,4-b]pyrazine-5-carboxamide], half-maximal inhibition (IC50) required 16 ± 1.3 µM and the Imax is -122 ± 11%.
The matching figures for `Cc1nn2c(c1-c1ccccc1Oc1ccccc1)N(C(=O)Cc1ccc3c(c1)OCO3)CCC2` [JS-10, 2-(benzo[d][1,3]dioxol-5-yl)-1-(2-methyl-3-(2-phenoxyphenyl)-6,7-dihydropyrazolo[1,5-a]pyrimidin-4(5H)-yl)ethan-1-one]: 5.4 ± 1.4 µM and -86 ± 5%.
As to `COc1ccccc1-c1n[nH]c2ncc(C(=O)NCc3cccnc3)nc12` [JS-6, 3-(2-methoxyphenyl)-N-(pyridin-3-ylmethyl)-1H-pyrazolo[3,4-b]pyrazine-5-carboxamide], the IC50 was 6.9 ± 1.1 µM and the Imax is -102 ± 3%.
